The values below come from patent publication US20080227838A1, “Method for neuroprotection with glycoluril derivatives” (Cereprotec Incorporated, priority 2007, published 2008).

For data set [1] the following is noted: in vivo; cited from earlier work.
For data set [2], the system named is experimental arrhythmias. The note with it: in vivo; cited from earlier work.
For data set [3], the system named is head trauma in mice. Put plainly: Brain edema (tissue water content) after closed head injury in mice. In kind it is in vivo. The procedure:
(§1) The cerebroprotective effect of mebicar was assessed in a model of head trauma in mice (Beni-Adani et al., 2001). This type of trauma produces brain edema (i.e. increase in water content), breakdown of the blood brain barrier (BBB) and clinical dysfunction. The clinical status of the mice is evaluated 1 and 24 hours after injury along with measurement of the extent of cerebral edema. The neurological deficit, assessed by a set of criteria termed the Neurological Severity Score (NSS), is maximal at 1 hour after the initiation of head trauma. The NSS slowly decreases over time from the initiation of head trauma, with the gradual spontaneous recovery of the mice.
(i) Induction of closed head injury (CHI) in a mice model. Male Sabra mice (strain from Hebrew University of Jerusalem, Israel), weighing 35 to 45 g, were used. CHI was induced under ether anesthesia. A metal rod weighing 333 g was allowed to free fall from a prefixed height (at 3 cm for a mouse weighing 28-32 g) over the exposed skull covering the left hemisphere in the midcoronal plane. The tip of the rod is covered with silicone, and it delivers the impact to the head that is fixed on the bottom plane of the trauma device. Sham-operated mice were anesthetized, their skull exposed, but trauma was not induced. After CHI the mice were assigned to vehicle or mebicar treatment.
(iii) Evaluation of water content (brain edema). The extent of cerebral edema was evaluated by determining the tissue water content in the injured hemisphere, as previously described (Beni-Adani et al., 2001). Briefly, mice were sacrificed 24 h after injury, the time of peak edema formation, and brain cortical samples of ˜20 mg were cut from the left (traumatized) and right (contralateral) hemispheres, from the site bordering the lesion. The right (non-injured) hemisphere was used as an internal control. Samples were weighed before and after drying in a desiccated oven for 24 h at 95° C. After weighing the “dried” sections, the brain water content was calculated as % H2O=[(wet weight−dry weight)×100]/wet weight.
(iv) Evaluation of drug effect on brain edema. In order to evaluate the effect of a drug, and to do it in a “clinical-relevant” setting, the drug is given 1 h after the injury, immediately after the initial assessment of NSS. This protocol allows a homogenous distribution of the mice between the drug and vehicle treatments, and ensures similar severity of injury in both groups. NSS is then evaluated again at 24 h after injury, and ΔNSS is calculated. The mice are then sacrificed, their brain removed and cortical segments from the site of injury, and contralaterally, are taken for evaluation of edema, as described above in (iii). […]

Data set [4] deals with myocardial contractility. The note with it: in vivo; cited from earlier work.
Data set [5] relates to neuroactive amino acids in the animal's brain. The note with it: cited from earlier work.
Data set [6] concerns head trauma in mice. Description: Clinical evaluation (Neurological Severity Score) after closed head injury in mice. In kind it is in vivo. Conditions: mebicar 750 mg/kg i.p., 5 mice out of 9, spontaneous recovery 2 out of 10 (20%). The procedure: as §1
(i) Induction of closed head injury (CHI) in a mice model. […]
(ii) Clinical evaluation of the mice after CHI. Mice were evaluated to define the severity of injury and functional recovery by using a set of clinical criteria. […]
For assessment of posttraumatic neurological impairment, a Neurological Severity Score (NSS) previously described, modified and validated, was used (Shapira et al. 1988; Chen et al. 1996; Beni-Adani et al. 2001). […] The ΔNSS, calculated as the difference between NSS at 1 h and the NSS at any later time-point, is a parameter which reflects the degree of spontaneous recovery following brain injury, as described (Chen et al., 1996; Yatsiv et al., 2002; Beni-Adani et al., 2001). […]

For data set [7] the following is noted: in vivo; cited from earlier work. This is another data set of the same source.
The test system of data set [8] is stress and hypoxia. The note with it: 100-1000 mg/kg, cited from earlier work.
The test system of data set [9] is shock. The note with it: in vivo; cited from earlier work.

Turning to `CN1C(=O)N(C)C2C1N(C)C(=O)N2C` (centres unmarked) [mebicar, 2,4,6,8-tetramethyl-2,4,6,8-tetraazabicyclo[3.3.0]-octane-3,7-dione], in [1], the metabolism entry is given as “not metabolized” and the “time to leave the organism” value is not above 24 h. Also, the “effect in experimental arrhythmias” value in data set [2] is listed as “protective action”. Also, the “Water content in the brain % (contralateral hemisphere)” value in data set [3] (mice, closed head injury, mebicar 750 mg/kg intraperitoneally 1 h after injury, 24 h after injury, contralateral hemisphere, M ± SE) is 77.9 ± 0.27%. For the same compound, in data set [3] (mice, closed head injury, mebicar 750 mg/kg intraperitoneally 1 h after injury, 24 h after injury, traumatized area, M ± SE), the “Water content in the brain % (traumatized area)” value is given as 80.7 ± 0.41%. In addition, the “effect on water content of the contralateral hemisphere” value in [3] (traumatized mice, mebicar 750 mg/kg i.p.) is listed as “decreased water content up to normal parameters”. Further, the “less water accumulated in the traumatized hemisphere of the brain” value in [3] (traumatized mice, mebicar 750 mg/kg i.p., versus untreated traumatized mice) is “About 35%”. For the same compound, the “effect on myocardial contractility” value in data set [4] is “increase the myocardial contractility”. For the same compound, the “change of balance of neuroactive amino acids in the brain” value in [5] is on record as “raising the content of gamma-butyric acid”. The “recovery in clinical function (share of mice)” value in data set [6] amounted to 55.5%. Besides, the toxicity entry in [7] is recorded as “extremely low toxicity”. Further, in [8] (stress and hypoxia), the “effect on parameters of body function under extreme conditions” value is reported as “protective action”. Besides, the “effect on muscle tone, movement coordination, working capacity” value in data set [8] (tested animals) is “without affecting the muscle tone, movement coordination or working capacity”. Further, the “effect in shock; acid-base and oxygen homeostasis” value in data set [9] is “antishock action”.
